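Tested at 5 concentrations; 48 h exposure; 96-well plates; endpoints linearly interpolated, else capped at highest concentration. TGI: concentration producing complete growth inhibition.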
How the values were obtained:
Assay in all cases: inhibition of tumour cell growth, NCI panel, 48 h
[1] = tested on: A498 renal
[2] = tested on: BT-549 breast
[3] = tested on: IGROV1 ovarian
[4] = tested on: OVCAR-3 ovarian
[5] = tested on: SF-295 CNS
[6] = tested on: SN12C renal
[7] = tested on: SW-620 colon
[8] = tested on: UACC-257 melanoma
[9] = tested on: UACC-62 melanoma
[10] = tested on: UO-31 renal

Row | SMILES | TGI [1] [µM] | TGI [2] [µM] | TGI [3] [µM] | TGI [4] [µM] | TGI [5] [µM] | TGI [6] [µM] | TGI [7] [µM] | TGI [8] [µM] | TGI [9] [µM] | TGI [10] [µM]
1 | C/C1=C\CC[C@@]2(C)O[C@@H]2C[C@@H]2[C@H](C/C(C)=C/CC1)OC(=O)[C@]21CO1 | > 100 | > 100 | > 100 | > 100 | > 100 | > 100 | > 100 | > 100 | > 100 | > 100
2 | CC(C)(Cl)C(Cl)CC/C(CBr)=C(\Cl)CBr (centres undefined) | > 58.2 | 3.27 | 3.66 | 6.81 | 16 | 6.15 | 3.28 | 5.09 | 3.33 | 8.86
3 | O=C(OCC1CC(C2(O)CCCCC2)C(=O)O1)c1ccccc1 (centres undefined) | > 100 | > 100 | > 100 | > 100 | > 100 | > 100 | > 100 | > 100 | > 100 | > 100
4 | O=C(NCCCN1CCN(CCCNC(=O)c2cc(-c3ccccc3)nc3ccccc23)CC1)c1cc(-c2ccccc2)nc2ccccc12 | 73.6 | 51.1 | 27.8 | > 53.6 | 31.6 | 43 | > 29.5 | 5.45 | 37.5 | > 42.2
5 | Cc1ccc(/C=C2\CCS(=O)(=O)c3ccccc3C2=O)cc1 | 36.5 | 34 | 28.7 | 37.7 | 40.5 | 45.1 | 47.9 | 35.1 | 33.4 | 25.4
6 | CCn1c(=O)c2c3ccc(O)cc3[nH]c2c2ccc(O)cc21 | > 100 | > 100 | > 100 | > 100 | > 100 | > 100 | > 100 | > 100 | > 100 | > 100
7 | Cc1c2c(n3c(nc4ccccc43)c1C#N)NCC2 | > 10 | > 10 | > 10 | > 10 | > 10 | > 10 | > 10 | > 10 | > 10 | > 10
8 | CCOC(=O)C12CCC(c3c(C)cccc3C)(O1)C(C(=O)OC)=C2C(=O)OC (centres undefined) | 7 | > 10 | > 10 | 4.2 | > 10 | > 10 | > 10 | 8.15 | > 10 | > 10
9 | O=C1NC(NNc2ccccc2)=N/C1=C\c1ccco1 | > 100 | 50.7 | 34 | 38.1 | > 100 | 49.9 | 60.7 | 63.5 | 17.3 | 55.2
10 | CC1=C(N2CC2)C(=O)C(C)=C(N2CC2)C1=O | 0.403 | 5.14 | 1.31 | 0.658 | 1.47 | 1.59 | 3.41 | 2.77 | 0.466 | 0.353
11 | O=C(Cn1c2ccc(Br)cc2c2nc3ccccc3nc21)N1CCOCC1 | > 100 | > 100 | > 100 | > 100 | > 100 | > 100 | > 100 | > 100 | > 100 | > 100
12 | COc1ccc2nc3c([N+](=O)[O-])ccc4c3c(c2c1)N=CN4CCN(C)C | 15.4 | 28.6 | 13.2 | 17 | 21.7 | 12.5 | > 42.6 | 16.1 | 27.4 | 11.6
13 | CCOC(=O)CN1C(=O)c2c(NC(=O)C(=O)O)cccc2S1(=O)=O | > 100 | > 100 | > 100 |  | > 100 | > 100 | > 100 | > 100 | > 100 | > 100
14 | O=C(/C=C/c1ccc(O)c(O)c1)c1ccc(O)cc1O | 34.7 | 14.6 | 35.1 | 37.4 | 50.3 | 43.9 | 35.2 | 29.9 | 48.3 | 30.3
15 | O=C(/C=C/c1ccc(Cl)cc1)c1nc2ccccc2[nH]1 | > 100 | > 100 | > 100 | 49.1 | > 100 | > 100 | 53.1 | > 100 | > 100 | 24
16 | CC(=O)Oc1ccc(C)c2c1[C@H]1CC[C@]3(C)[C@@H](OC(C)=O)CC[C@H]3[C@@H]1CC2 | 31.4 | 32 | 36.4 | 33.1 | 48.5 | 39 | 34.4 | 35.6 | 34.5 | > 100

Reference: PubChem BioAssay (NCI)
